IC50 data for one compound are collected here from ChEMBL document CHEMBL5725286, “Polyfluorinated compounds acting as bruton tyrosine kinase inhibitors” (2017).

The structures appear in SMILES notation.

Usually IC50 stands for the concentration that gives 50% inhibition.

For this assay, the target named is Tyrosine-protein kinase BTK (Homo sapiens, UniProt Q06187). The assay is described as follows: HTRF Assay: The enzyme reaction mixture of BTK wild type standard HTRF assay contained 1 nM BTK wild type, 1 μM biotin-TK1 peptide, and 30 μM ATP in a buffer. The enzyme reaction were carried out at room temperature for 60 minutes. 5 μl of 0.2 M EDTA were added to quench the reaction and then […] were added at final concentrations of 2 nM antibody and 62.5 nM XL665. The plates were incubated at room temperature for 60 minutes and then read in the Envision plate reader.
Chain of Tyrosine-protein kinase BTK (Q06187 whole entry): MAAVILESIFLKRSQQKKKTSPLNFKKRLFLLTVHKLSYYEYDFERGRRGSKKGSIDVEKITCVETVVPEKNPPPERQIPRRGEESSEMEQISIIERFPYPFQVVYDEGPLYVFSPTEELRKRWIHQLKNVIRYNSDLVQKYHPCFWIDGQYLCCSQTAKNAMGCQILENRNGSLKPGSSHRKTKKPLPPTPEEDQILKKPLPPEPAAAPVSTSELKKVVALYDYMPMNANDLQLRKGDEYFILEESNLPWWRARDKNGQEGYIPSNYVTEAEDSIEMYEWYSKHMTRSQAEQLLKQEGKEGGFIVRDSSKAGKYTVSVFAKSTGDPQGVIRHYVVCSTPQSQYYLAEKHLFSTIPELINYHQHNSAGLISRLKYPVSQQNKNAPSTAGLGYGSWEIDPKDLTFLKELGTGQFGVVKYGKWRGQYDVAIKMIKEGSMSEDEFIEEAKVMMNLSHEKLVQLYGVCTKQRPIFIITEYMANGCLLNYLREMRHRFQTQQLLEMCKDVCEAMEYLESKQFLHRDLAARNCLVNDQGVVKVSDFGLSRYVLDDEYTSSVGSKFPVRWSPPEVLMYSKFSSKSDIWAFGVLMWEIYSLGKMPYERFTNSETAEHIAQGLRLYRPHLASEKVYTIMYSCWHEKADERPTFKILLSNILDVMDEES

Consider `Nc1ncnc2c1c(-c1ccc(Oc3c(F)c(F)cc(F)c3F)cc1F)nn2C1CCC(NC(=O)CSSCC(=O)NC2CCC(n3nc(-c4ccc(Oc5c(F)c(F)cc(F)c5F)cc4F)c4c(N)ncnc43)CC2)CC1` (stereo unspecified), for which the IC50 was 22 nM.
